# Patent US20260250318A1, “COMPOSITIONS AND METHODS FOR CROSSING THE BLOOD BRAIN BARRIER” (VOYAGER THERAPEUTICS, INC., priority 2022, published 2026)
# System: brain
# Experiment: Maturation of TTM-001 capsid, NGS enrichment in brain of CD-1 Outbred mice
# Type: in vivo
# Details: NGS fold-enrichment of TTM-001 matured AAV capsid variants in the brain of CD-1 Outbred mice; intravenous 1.0×10^12 VG/dose; 14 days in life; RNA; relative to non-matured TTM-001 control
# Summary of the method: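 Pooled matured TTM-001 or TTM-002 capsid libraries (loop IV region randomized by triple-codon or low-frequency point mutagenesis) dosed IV via tail vein at 1.0×10^12 VG/dose to three female CD-1 mice. Brain RNA taken after 14 days; RT-PCR and NGS gave fold enrichment versus parent TTM-001 or TTM-002 control.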
row,Sequence,Fold enrichment over TTM-001 [fold]
1,KTINGSGSPHSLRFNQQT,4.765
2,KTINGSGSPHSLRHNQQT,2.980
3,KTINGSGSPHSLRRNQQT,4.985
4,KTINGSGSPHSLRSNQQT,2.778
5,KTINGSGSPHSLRYNQQT,2.462
6,KTINGSGSPHSLSCNQQT,2.605
7,KTINGSGSPHSLSWNQQT,2.588
8,KTINGSGSPHSLTWNQQT,2.698
9,KTINGSGSPHSLVFNQQT,2.019
10,KTINGSGSPHSLWLNQQT,4.412
11,KTINGSGSPHSLWQNQQT,2.037
12,KTINGSGSPHSLWSNQQT,4.467
13,KTINGSGSPHSLYLNQQT,3.264
14,KTINGSGSPHSMFPNQQT,2.419
15,KTINGSGSPHSMLYNQQT,2.808
16,KTINGSGSPHSMYLNQQT,2.000
17,KTINGSGSPHSPLWNQQT,2.562
18,KTINGSGSPHSRGRNQQT,4.961
19,KTINGSGSPHSRKLNQQT,3.646
20,KTINGSGSPHSRKQNQQT,2.162
21,KTINGSGSPHSRLFNQQT,2.542
22,KTINGSGSPHSRLKNQQT,3.156
23,KTINGSGSPHSRLRNQQT,3.851
24,KTINGSGSPHSRPRNQQT,2.164
25,KTINGSGSPHSRRLNQQT,3.251
26,KTINGSGSPHSRRQNQQT,2.166

row,Sequence,Fold enrichment over TTM-001 [fold]
1,KTINGSGSPHSRRSNQQT,2.851
2,KTINGSGSPHSRRVNQQT,2.676
3,KTINGSGSPHSRSRNQQT,3.784
4,KTINGSGSPHSRTRNQQT,2.912
5,KTINGSGSPHSRTYNQQT,2.009
6,KTINGSGSPHSRVRNQQT,2.540
7,KTINGSGSPHSRWQNQQT,3.372
8,KTINGSGSPHSRYSNQQT,2.536
9,KTINGSGSPHSSCLNQQT,2.471
10,KTINGSGSPHSSCQNQQT,2.365
11,KTINGSGSPHSSKRNQQT,2.978
12,KTINGSGSPHSSLCNQQT,2.592
13,KTINGSGSPHSSLWNQQT,3.179
14,KTINGSGSPHSSRKNQQT,2.585
15,KTINGSGSPHSSRRNQQT,4.920
16,KTINGSGSPHSSWANQQT,2.264
17,KTINGSGSPHSTRLNQQT,2.860
18,KTINGSGSPHSTRPNQQT,2.598
19,KTINGSGSPHSTRQNQQT,2.212
20,KTINGSGSPHSTVWNQQT,2.196
21,KTINGSGSPHSTWLNQQT,3.583
22,KTINGSGSPHSTWTNQQT,2.307
23,KTINGSGSPHSVFLNQQT,2.069
24,KTINGSGSPHSVLFNQQT,2.194
25,KTINGSGSPHSVSWNQQT,2.223
26,KTINGSGSPHSVYLNQQT,4.426

row,Sequence,Fold enrichment over TTM-001 [fold]
1,KTINGSGSPHSVYRNQQT,2.432
2,KTINGSGSPHSWGSNQQT,2.473
3,KTINGSGSPHSWLQNQQT,2.665
4,KTINGSGSPHSWLSNQQT,3.495
5,KTINGSGSPHSWSLNQQT,2.523
6,KTINGSGSPHSWTQNQQT,2.084
7,KTINGSGSPHSYLINQQT,2.650
8,KTINGSGSPHSYLLNQQT,2.147
9,KTINGSGSPHSYLRNQQT,4.566
10,KTINGSGSPHSYRPNQQT,3.095
11,KTINGSGSPHSYSRNQQT,2.196
12,KTINGSGSPHSYVRNQQT,2.339
13,KTINGSGSPHTKWQNQQT,2.222
14,KTINGSGSPHTLFQNQQT,2.136
15,KTINGSGSPHTLWQNQQT,2.168
16,KTINGSGSPHTLYQNQQT,3.117
17,KTINGSGSPHTRRQNQQT,3.350
18,KTINGSGSPHTWLQNQQT,2.397
19,KTINGSGSPHTWSQNQQT,2.011
20,KTINGSGSPHTWTQNQQT,2.045
21,KTINGSGSPHVLFQNQQT,2.203
22,KTINGSGSPHVLWQNQQT,4.533
23,KTINGSGSPHVRRQNQQT,4.114
24,KTINGSGSPHVTWQNQQT,2.281
25,KTINGSGSPHWLAQNQQT,3.192
26,KTINGSGSPHWSLQNQQT,2.389

row,Sequence,Fold enrichment over TTM-001 [fold]
1,KTINGSGSPHWSVQNQQT,2.138
2,KTINGSGSPHWVSQNQQT,2.007
3,KTINGSGSPHYLLQNQQT,2.011
4,KTINGSGSPHYLVQNQQT,3.819
5,KTINGSGTPHSKAQNQQT,2.259
6,KTINGSHSPHRKAQNQQT,2.028
7,KTINGSISPHFVAQNQQT,2.006
8,KTINGSKSPHFKAQNQQT,3.285
9,KTINGSKSPHRKAQNQQT,2.696
10,KTINGSKSPHRLAQNQQT,3.073
11,KTINGSKSPHRTAQNQQT,2.950
12,KTINGSLSPHCLAQNQQT,2.577
13,KTINGSLSPHIYAQNQQT,2.536
14,KTINGSLSPHLCAQNQQT,2.775
15,KTINGSLSPHLFAQNQQT,2.285
16,KTINGSLSPHRRAQNQQT,2.717
17,KTINGSLSPHSCAQNQQT,3.268
18,KTINGSLSPHSWAQNQQT,2.885
19,KTINGSLSPHTWAQNQQT,2.115
20,KTINGSLSPHYMAQNQQT,2.015
21,KTINGSMSPHLYAQNQQT,2.354
22,KTINGSMSPHRKAQNQQT,2.251
23,KTINGSMSPHRRAQNQQT,2.028
24,KTINGSNSPHRKAQNQQT,2.218
25,KTINGSPSPHLFAQNQQT,2.238
26,KTINGSPSPHRKAQNQQT,2.430

row,Sequence,Fold enrichment over TTM-001 [fold]
1,KTINGSPSPHRRAQNQQT,3.216
2,KTINGSPSPHYLAQNQQT,2.391
3,KTINGSRSPHARAQNQQT (peptide inserted in AAV capsid),2.745
4,KTINGSRSPHCSAQNQQT (peptide inserted in AAV capsid),2.426
5,KTINGSRSPHFKAQNQQT (peptide inserted in AAV capsid),2.277
6,KTINGSRSPHIRAQNQQT (peptide inserted in AAV capsid),2.356
7,KTINGSRSPHLFAQNQQT (peptide inserted in AAV capsid),3.601
8,KTINGSRSPHLRAQNQQT (peptide inserted in AAV capsid),3.410
9,KTINGSRSPHRLAQNQQT (peptide inserted in AAV capsid),2.698
10,KTINGSRSPHRPAQNQQT (peptide inserted in AAV capsid),2.061
11,KTINGSRSPHRRAQNQQT (peptide inserted in AAV capsid),2.615
12,KTINGSRSPHRSAQNQQT (peptide inserted in AAV capsid),2.536
13,KTINGSRSPHSKAQNRQT (peptide inserted in AAV capsid),2.155
14,KTINGSRSPHSWAQNQQT (peptide inserted in AAV capsid),2.559
15,KTINGSRSPHTRAQNQQT (peptide inserted in AAV capsid),3.989
16,KTINGSRSPHVRAQNQQT (peptide inserted in AAV capsid),2.412
17,KTINGSRSPHYKAQNQQT (peptide inserted in AAV capsid),2.879
18,KTINGSSSPHCLAQNQQT (peptide inserted in AAV capsid),2.074
19,KTINGSSSPHCTAQNQQT (peptide inserted in AAV capsid),5.607
20,KTINGSSSPHLCAQNQQT (peptide inserted in AAV capsid),3.402
21,KTINGSSSPHLWAQNQQT (peptide inserted in AAV capsid),2.605
22,KTINGSSSPHSWAQNQQT (peptide inserted in AAV capsid),2.119
23,KTINGSSSPHWLAQNQQT (peptide inserted in AAV capsid),2.490
